Earlier results on one compound are cited in patent US20040048805A1, “Antilipemic agents” (priority 2003, published 2004).

This data set deals with HMG-CoA reductase. The following applies: oral administration to rabbits; Arterioscler Thromb Vasc Biol. 1998; 18: 1304.

Turning to `CCC(CC)CC(=O)c1c(C(=O)OC)c(-c2ccc(OC)c(OC)c2)c2c(OC)c(OC)c(OC)cc2c1O` [compound A, methyl 1-(3,4-dimethoxyphenyl)-3-(3-ethylvaleryl)-4-hydroxy-6,7,8-trimethoxy-2-naphtoate], the “HMG-CoA reductase activity in the liver” value was “increased the HMG-CoA reductase activity in the liver”.
